According to US3935229A, “Esters of 2-[(4-quinolyl)amino]-benzoic acids” (Synthelabo, priority 1973, dated 1976):
Where a name gives a salt, the structure may show the parent alone.

Legend:
[1] = test system: mice of both sexes, of the Swiss strain; experiment: in vivo; settings: mice, oral administration
Protocol: Tests were carried out on mice of both sexes, of the Swiss strain, of average weight 20 g. (± 2g.).

[2] = test system: heated plate test, Swiss mice; experiment: Heated plate test (plate heated by acetone vapours; analgesic effects of the central type); settings: oral
[3] = test system: carragenine-induced oedema of the paw, Sherman rats; experiment: Carragenine-induced oedema test (oedema of the paw); format: in vivo; settings: Rattus norvegicus, po, read-out: Carragenine-induced oedema test AD (AD40 = 40% active dose)
[4] = test system: pain induced, in Swiss mice, by the intraperitoneal injection of phenylquinone; experiment: Siegmund test (analgesic effect against pain induced by intraperitoneal phenylquinone); format: in vivo; settings: for ED50: Mus musculus, po, read-out: Siegmund test AD50 (50% active dose), mice, oral administration
From the text: 1. Effect against pain induced, in Swiss mice, by the intraperitoneal injection of phenylquinone, in accordance with the experimental procedure of Siegmund (Proc. Soc. Exp. Biol. Med., 1957, 95, 729), modified by Cheymol (C.R. Soc. Biol., 1963, 157, 521) and Brittain (Nature, London, 1963, […], 895).

SMILES: O=C(OCCN1CCN(c2cccc(C(F)(F)F)c2)CC1)c1ccccc1Nc1ccnc2cc(C(F)(F)F)ccc12 [Compound 73-017, 2-(4'-m-trifluoromethylphenyl-piperazino)-ethyl 2-(7'-trifluoromethyl-4'-quinolyl-amino)-benzoate dihydrochloride]
- Acute toxicity LD50 (50% lethal dose) ([1]; dihydrochloride): 1,500 mg/kg
- analgesic effects of the central type (heated plate test), compared with amidopyrine ([2]; versus amidopyrine): greater than that of amidopyrine
- extent of the greater activity than amidopyrine in the heated plate test ([2]; versus amidopyrine): considerable
- ED40 [3]: 60 mg/kg
- ED50 [4]: 4 mg/kg
- analgesic effects of the peripheral type (Siegmund test), compared with amidopyrine and glafenine ([4]; mice, oral, versus amidopyrine and glafenine): generally much more active

SMILES: O=C(OCC(O)CO)c1ccccc1Nc1ccnc2cc(Cl)ccc12 (stereo not shown) [Glafenine, reference compound]
- Acute toxicity LD50 (50% lethal dose) [1]: 3,500 mg/kg
- central component of the analgesic effect (heated plate test) [2]: much less strong
- ED40 [3]: 30 mg/kg
- ED50 [4]: 50 mg/kg
